Measurements: patent US20080139536A1, “Benzodiazepines for Treating or Preventing Rsv Infection” (Novartis Pharmaceuticals Corporation, priority 2004, published 2008)

Columns and labels:
RSV (RSS strain) = assay: RSV ELISA antigen reduction assay in Hep-2 cells; format: cell-based, Respiratory Syncytial Virus; settings: RSV-infected Hep-2 cells, 3 day assay, ELISA OD 490 nm, 7-point dilution 50 μM-0.78 μM
Experimental: This was quantified by optical density (OD) measurement.
This assay was set up using all 96 wells of flat-bottomed 96-well plates. The outer wells were not subjected to any greater amount of evaporation than the inner wells during the 3 day assay period. (i.e. No “edge effect” seen).
Plates were set up one day before addition of virus and compounds. The assay then ran for 3 days with ELISA development taking place on the 4th day.
(§1) All 96 wells of a microtitre plate were seeded at a density of 4×10^3 Hep-2 cells/well in 100 μl/well of Growth Medium (GM) consisting of Dulbecco's MEM (DMEM) with Glutamax-1, Sodium Pyruvate, 1000 mg/l glucose and pyridoxine (Invitrogen, catalogue number 21885-025) and supplemented with 10% FBS. (See Plate 1).
A frozen vial of RSV (RSS strain provided by Virogen Ltd) stock solution was removed from the −80 freezer or liquid nitrogen store and diluted to a known Multiplicity of Infection (m.o.i) in Growth Medium.
The m.o.i. was calculated by prior titration of the virus stock (by the ELISA assay method) as the virus input required to achieve a window of at least 0.8 OD units between infected and uninfected control wells.
50 μl of diluted virus was added to infected, “virus+”, wells by multichannel pipette; 50 μl of Growth Medium was added to uninfected, cell control wells (CC) by multichannel pipette. (See Plate 2)
Plates were incubated at 37° C. for 1 hr to allow virus adsorption.
Compounds were made up at 4× strength in GM containing 2% DMSO (a final DMSO concentration in the assay of 0.5%).
(§2) Six compounds were tested on each assay plate as illustrated below. (See Plate 3). Compounds were tested in duplicate wells across a 7-point dilution series (from 50 μM-0.78 μM): in the presence of virus.
Virus infected, untreated wells served as the virus control (VC); Uninfected, untreated wells serve as the cell control (CC). The difference in absorbance between CC and VC wells constitutes the assay window.
200 μl of GM containing 2% DMSO was added to all wells except the ‘50 μM’ or first column, to which 392 μl of GM was added. 8 μl of each test compound was cherry-picked from a thawed Arrow screening plate and transferred to the appropriate well in the ‘50 μM’ column. Since the compound stock was at 10 mM in 100% DMSO, this will maintain the DMSO level at 2% at the top compound concentration.
Using a multichannel pipette, 200 μl was transferred from the 50 μM column to the 25 μM column, then to the 12.5 μM column and so on across the dilution plate creating a serial doubling dilution. Compounds were mixed upon transfer and tips changed between transfers, ensuring also that no compound was transferred to the last column of compound-free wells (0 μM).
The dilution plate was turned lengthways and 50 μl of compound easily transferred by multichannel pipette from the dilution plate to the assay plate, column by column. There was therefore an excess of 100 μl remaining in the dilution plate.
Plates were incubated at 37° C., 5% CO2 for 3 days.
Media was tapped out from wells directly into Virkon (1% solution in water) and plates were washed by immersing in a plastic box containing PBS. 50 μl/well of 75%/25% vol/vol acetone/methanol fixative was added by multichannel pipette and left for 3 mins.
Some 200 μl of blocking solution (2% Marvel in PBS containing 0.05% Tween) was added per well by multichannel pipette. Plates were incubated at 37° C. in a shaking incubator for 60 mins.
RSV mouse monoclonal antibody NCL-RSV3 (Novocastra) was diluted 1/400 in PBS/2% Marvel/0.05% Tween and 50 μl was added per well. Plates were incubated at 37° C. in a shaking incubator for 90 mins.
DAKo rabbit anti-mouse HRP conjugate (DAKO catalogue number P0260) was diluted 1/1000 in PBS/2% Marvel/0.05% Tween and 50 μl was added per well. Plates were incubated at 37° C. in a shaking incubator for 60 mins.
Substrate (SigmaFast OPD) was prepared in advance by dissolving 1 urea tablet in 20 mL water. […]

Hep-2 cells = assay: Cell toxicity: crystal violet staining and microscopic examination of monolayers; format: cell-based; settings: Hep-2 monolayers of the assay plates, crystal violet stain, indications of cell toxicity; compounds tested 50 μM-0.78 μM
Experimental: as §1, §2
The wells were emptied, washed in tap water and the monolayers stained with 50 μl/well of 2% crystal violet in 20% methanol/water for at least 1 hour. The wells were then washed and air-dried and the monolayers examined under the microscope for indications of cell toxicity.

[1] = human respiratory syncytial virus, 72 h

N#Cc1ccc(C(=O)N[C@H]2N=C(c3ccccc3)c3ccccc3NC2=O)c(N2CCCCC2)c1 [Example 15, (S)-4-Cyano-N-(2-oxo-5-phenyl-2,3-dihydro-1H-benzo[e][1,4]diazepin-3-yl)-piperidine-1-yl-benzamide]
IC50 (RSV (RSS strain)): > 10 µM
TD50 (Hep-2 cells): Tr25

O=C(N[C@H]1N=C(c2ccccc2)c2ccccc2NC1=O)c1cc(F)ccc1N1CCS(=O)(=O)CC1 [Example 7, (S)-2-(1,1-Dioxo-1λ6-thiomorpholin-4-yl)-5-fluoro-N-(2-oxo-5-phenyl-2,3-dihydro-1H-benzo[e][1,4]diazepin-3-yl)-benzamide]
IC50 (RSV (RSS strain); [1]): < 5 µM
TD50 (Hep-2 cells): Tr50

O=C(N[C@H]1N=C(c2ccccc2)c2ccccc2NC1=O)c1ccc(F)cc1[N+]1([O-])CCS(=O)(=O)CC1 [Example 5]
IC50 (RSV (RSS strain)): < 5 µM
TD50 (Hep-2 cells): Tr25

N#Cc1ccc(C(=O)N[C@H]2N=C(c3ccccc3)c3ccccc3NC2=O)c(N2CCCC2)c1 [Example 14, (S)-4-Cyano-N-(2-oxo-5-phenyl-2,3-dihydro-1H-benzo[e][1,4]diazepin-3-yl)-2-pyrrolidin-1-yl-benzamide]
IC50 (RSV (RSS strain); [1]): < 5 µM
TD50 (Hep-2 cells): Tr50
